Measurements as given in patent EP3479863B1, “COMPOSITIONS, METHODS AND ARTICLES CONCERNING PHARMACEUTICAL NITRIC OXIDE AND CONTROLLED PATIENT DELIVERY SYSTEMS THEREOF” (Mallinckrodt Pharmaceuticals Ireland Limited, priority 2010, dated 2012).

How the values were obtained:
[1] = two lines for one acid = two pKa values; cited from earlier work
[2] = NO release from powdered acids hit by single 50 nL sodium nitrite droplets, measured with NO analyzer; details: Example 2; for Time to 90% AUC: 7 mg finely ground powder per well, 50 nL droplet of 6M NaNO2, air flow 500 mL/minute; for NO release kinetics: comparison in words, FIG. 12 and FIG. 13
Description: Powdered acids of different acidity (TABLE 1) and reducing capacity, or mixtures at equal weight ratios thereof, were tested for their ability to promote NO release from concentrated aqueous solutions of sodium nitrite. Acids were finely ground and about 5-7 mg placed into wells of a reaction plate contained within a reaction chamber equipped with a microvalve capable of dispensing single 50 nL liquid droplets of sodium nitrite into each well. The reaction chamber was continuously flushed with air at defined flow rates and the NO concentration in the air measured with a […]® NO Analyzer 280i. When NO concentrations exceeded the measurement range of the NO analyzer, the air stream was diluted with a nitrogen stream of defined flow rate prior to measurement and the measured NO concentration corrected for the dilution factor. 50 ml of 6M NaNO2 stock solution was prepared and degassed for 15 minutes. 10 mL of the stock solution was filled into a liquid reservoir feeding a microvalve capable of dispensing single 50 nL liquid droplets sequentially into each of six wells of a reaction plate contained within a reaction chamber. The air flow rate through the reaction chamber was set to 500 mL/minute. The air flow was diluted with nitrogen gas to a flow rate of 1586 mL/minute to allow measurement of the entire NO peak with a […]® NO Analyzer 280i. The NO analyzer was calibrated using a 45 ppm NO calibration gas prior to the experiment. […] The microvalve fired a 50 nL droplet into each well. The timecourse of NO production was measured with the NO Analyzer. The following time parameters were analyzed for each NO peak: AUC, time to reaching 90% of the AUC, and maximum peak NO concentration.

[3] = NO release from croconic acid coated MAGNA nylon tape versus particulate croconic acid, single 50 nL droplets; details: single 50 nL droplets of 6M NaNO2
Description: 10 grams of croconic acid were milled for 5 minutes using a bench top micromill and sifted through a 32 µm sieve. 100 mg of milled acid were suspended into 1 mL of absolute MeOH supplemented with 2% v/v cornstarch and 0.05% v/v glycerol. The yellow-orange suspension was spread evenly as a single coat using an acid resistant brush onto a 5 mm by 18 inch MAGNA® hydrophobic nylon tape of 1 .2 µm pore size. The tape was air-dried for 30 min by suspending it horizontally at both ends. The croconic acid formed a dark yellow slightly powdery coating on top of the nylon membrane; the average surface density of croconic acid deposited on the tape was 2.66 mg/cm^2.
NO release in response to single 50 nL droplets of 6M NaNO2 is shown in FIG 14 and TABLE 3, compared to the NO release from croconic acid powder. The croconic acid coated tape produced 85.3% of the NO compared to the bulk croconic acid powder, based upon the AUC.
Particulate croconic acid of particle size < 20µm produced by dry-milling for 45 min was formulated as 500 mg/ml suspension in USP ethanol by 10 min of sonication with additives of 0.05% v/v glycerol and 2% v/v starch and coated onto MAGNA® hydrophobic nylon tape in two sequential air-dried coats, yielding an average croconic acid surface density of 4.42 mg/cm^2.
NO release in response to single 50 nL droplets of 6M NaNO2 is shown in FIG. 15 and TABLE 4, compared to the NO release from particulate croconic acid. The croconic acid coated tape yielded 93.9% of the NO compared to the bulk croconic acid powder.
In another example, the procedure of the preceding paragraph was repeated by suspending 350 mg of milled croconic acid in 1 mL of isopropanol and preparing two sequential air-dried coats on the MAGNA® hydrophobic nylon strip yielding a croconic acid deposited as a dark yellow coating on the nylon membrane. NO release in response to single 50 nL droplets of 6M NaNO2 is shown in FIG. 16 and TABLE 5, compared to the NO release from particulate croconic acid. The croconic acid coated tape yielded 84.7% of the NO compared to the bulk croconic acid powder.

[4] = cited from earlier work

O=C(O)C(O)c1c(F)c(F)cc(F)c1F (centres unmarked) [2,3,5,6-Tetrafluoromandelic acid]
pKa [1]: <<3.4

O=C(O)C(O)c1ccccc1F (centres unmarked) [2-Fluoro-mandelic acid]
pKa [1]: <3.4

O=C1O[C@H]([C@@H](O)CO)C(O)=C1O [Ascorbic Acid, reference compound]
Time to 90% AUC [2]: 13.98 s | NO release kinetics [2]: slow, protracted and irregular | pKa [1]: 11.6

O=C(O)C(O)c1ccccc1 (centres unmarked) [Mandelic acid]
pKa [1]: 3.37

O=C(O)C(Cl)(Cl)Cl [trichlomacetic acid]
pKa [1]: 0.77

Croconic Acid
Time to 90% AUC [2]: 1.1 s | NO release kinetics [2]: superior NO release kinetics over ascorbic acid while releasing similar quantities of NO | Time to 90% AUC ([3]; Example 4A, suspension in MeOH, single coat, 1.2 µm pore size tape): 0.79 s | Time to 90% AUC ([3]; Example 4B, particle size < 20µm, suspension in USP ethanol, two coats): 0.85 s | Time to 90% AUC ([3]; Example 4C, suspension in isopropanol, two coats): 0.77 s

nonylphenol ethoxylate [NP-9]
surface tension ([4]; 0.1 % v/v aqueous solution at 25°C): 30 Dynes/cm | viscosity ([4]; at 25°C): 243 cp
